{
  "source": "patent US10227357B2",
  "about": "“Compounds and methods for kinase modulation, and indications therefor” (Plexxikon Inc., priority 2012, dated 2019)",
  "key": {"c-kit mutant D816V": {"target": "T1, c-kit mutant D816V (Homo sapiens, UniProt P10721, D816V/DEL694-753)", "T1 construct": "residues 551-934, kinase insertion domain residues 694-753 deleted; 6x-histidine (N); made in house; host or cells: E. coli Arctic Express (DE3) RIL (Stratagene)", "T1 sequence (P10721 with tags, fused parts or gaps DEL694-753/D816V)": "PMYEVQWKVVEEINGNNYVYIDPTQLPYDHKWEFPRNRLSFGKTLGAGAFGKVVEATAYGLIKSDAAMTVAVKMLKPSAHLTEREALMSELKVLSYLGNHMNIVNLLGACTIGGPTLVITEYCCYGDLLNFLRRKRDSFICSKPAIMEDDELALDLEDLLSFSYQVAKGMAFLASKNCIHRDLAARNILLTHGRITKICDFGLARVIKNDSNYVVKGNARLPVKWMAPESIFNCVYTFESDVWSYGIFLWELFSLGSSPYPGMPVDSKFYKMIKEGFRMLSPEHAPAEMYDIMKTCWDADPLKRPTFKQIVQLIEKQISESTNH", "test": "c-Kit mutant D816V biochemical assay, AlphaScreen", "settings": "c-kit D816V biochemical inhibitory activity; read-out: Biochemical activity (IC50 μM) Kit D816V", "outline": "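Purified His-tagged c-Kit D816V (E. coli-expressed) assayed in 25 mM HEPES pH 7.2 with Mg/Mn, 5% DMSO and 10 μM ATP, 30 min at room temperature, 8-point 1:3 dilutions. Phosphorylation detected by AlphaScreen with streptavidin donor and PY20 acceptor beads; IC50 from signal versus concentration.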"}, "c-kit kinase": {"target": "T2, c-kit kinase (Homo sapiens, UniProt P10721)", "T2 construct": "The c-kit (or kinase domain thereof) is an active kinase in AlphaScreen; poly-Histidine tag (in-house protein only) (cleaved yes); host or cells: E. coli BL21(DE3)RIL, co-expressed with PTP1B", "T2 sequence (P10721 26-976)": "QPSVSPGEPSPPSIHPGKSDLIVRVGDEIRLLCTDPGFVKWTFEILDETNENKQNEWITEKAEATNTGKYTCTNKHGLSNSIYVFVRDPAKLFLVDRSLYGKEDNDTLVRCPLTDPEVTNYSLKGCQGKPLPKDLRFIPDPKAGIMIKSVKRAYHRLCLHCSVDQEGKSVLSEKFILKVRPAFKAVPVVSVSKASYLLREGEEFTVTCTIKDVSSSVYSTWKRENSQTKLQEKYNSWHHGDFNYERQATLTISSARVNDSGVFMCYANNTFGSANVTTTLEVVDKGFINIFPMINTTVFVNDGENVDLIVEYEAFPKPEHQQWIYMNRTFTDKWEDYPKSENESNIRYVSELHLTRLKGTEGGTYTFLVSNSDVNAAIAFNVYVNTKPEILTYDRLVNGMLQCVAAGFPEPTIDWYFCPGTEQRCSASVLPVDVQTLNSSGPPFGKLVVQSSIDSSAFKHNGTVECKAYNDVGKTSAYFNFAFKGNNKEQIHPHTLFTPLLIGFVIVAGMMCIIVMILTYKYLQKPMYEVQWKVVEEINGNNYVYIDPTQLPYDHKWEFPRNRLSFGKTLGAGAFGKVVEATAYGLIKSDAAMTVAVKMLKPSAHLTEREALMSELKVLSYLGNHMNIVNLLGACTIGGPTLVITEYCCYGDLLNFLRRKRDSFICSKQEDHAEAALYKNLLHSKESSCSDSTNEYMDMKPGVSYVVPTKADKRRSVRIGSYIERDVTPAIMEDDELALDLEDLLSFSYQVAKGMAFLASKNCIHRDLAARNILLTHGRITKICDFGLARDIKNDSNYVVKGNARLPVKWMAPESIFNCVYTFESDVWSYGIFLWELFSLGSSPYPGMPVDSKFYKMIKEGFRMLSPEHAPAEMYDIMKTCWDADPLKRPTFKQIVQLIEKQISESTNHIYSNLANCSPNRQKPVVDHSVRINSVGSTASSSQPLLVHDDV", "test": "c-Kit biochemical assay, AlphaScreen, 10 μM ATP", "settings": "c-kit biochemical inhibitory activity; read-out: Biochemical activity (IC50 μM) Kit", "outline": "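His-tagged c-Kit expressed in E. coli with co-expressed PTP1B (dephosphorylated), tag removed; 0.1 ng per reaction with biotinylated-peptide substrate in 50 mM HEPES pH 7.2, 5 mM MgCl2, 5 mM MnCl2, 5% DMSO, 10 μM ATP, 1 h at room temperature. Phosphorylation detected by AlphaScreen (streptavidin donor, PY20 acceptor beads); IC50 from 8-point 1:3 dilution series.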"}},
  "data": [
    {"molecule": "COc1ccc(S(=O)(=O)Nc2ccc(-c3ncnc4[nH]c(-c5ccc(F)cc5)cc34)cc2F)cc1", "note": "[P-0409, N-[2-fluoro-4-[6-(4-fluorophenyl)-7H-pyrrolo[2,3-d]pyrimidin-4-yl]phenyl]-4-methoxy-benzenesulfonamide]", "values": [
      {"measurement": "IC50", "setting": "c-kit mutant D816V", "result": "1 to 10", "unit": "µM"},
      {"measurement": "IC50", "setting": "c-kit kinase", "result": "10 to 200", "unit": "µM"}
    ]},
    {"molecule": "O=S(=O)(Nc1ccc(-c2ncnc3[nH]c(-c4ccc(F)cc4)cc23)cc1F)C1CC1", "note": "[P-0410, N-[2-fluoro-4-[6-(4-fluorophenyl)-7H-pyrrolo[2,3-d]pyrimidin-4-yl]phenyl]cyclopropanesulfonamide]", "values": [
      {"measurement": "IC50", "setting": "c-kit mutant D816V", "result": "0.0001 to 1", "unit": "µM"},
      {"measurement": "IC50", "setting": "c-kit kinase", "result": "1 to 10", "unit": "µM"}
    ]},
    {"molecule": "O=S(=O)(Nc1cccc(-c2ncnc3[nH]c(-c4ccc(F)cc4)cc23)c1)C1CC1", "note": "[P-0413, N-[3-[6-(4-fluorophenyl)-7H-pyrrolo[2,3-d]pyrimidin-4-yl]phenyl]cyclopropanesulfonamide]", "values": [
      {"measurement": "IC50", "setting": "c-kit mutant D816V", "result": "1 to 10", "unit": "µM"},
      {"measurement": "IC50", "setting": "c-kit kinase", "result": "1 to 10", "unit": "µM"}
    ]},
    {"molecule": "CS(=O)(=O)Nc1cccc(-c2ncnc3[nH]c(-c4ccc(F)cc4)cc23)c1", "note": "[P-0414, N-[3-[6-(4-fluorophenyl)-7H-pyrrolo[2,3-d]pyrimidin-4-yl]phenyl]methanesulfonamide]", "values": [
      {"measurement": "IC50", "setting": "c-kit mutant D816V", "result": "1 to 10", "unit": "µM"},
      {"measurement": "IC50", "setting": "c-kit kinase", "result": "1 to 10", "unit": "µM"}
    ]},
    {"molecule": "Fc1ccc(-c2cc3c(-c4ccc(NCc5ccc(C(F)(F)F)nc5)nc4)ncnc3[nH]2)cc1", "note": "[P-0415, 5-[6-(4-fluorophenyl)-7H-pyrrolo[2,3-d]pyrimidin-4-yl]-N-[[6-(trifluoromethyl)-3-pyridyl]methyl]pyridin-2-amine]", "values": [
      {"measurement": "IC50", "setting": "c-kit mutant D816V", "result": "1 to 10", "unit": "µM"},
      {"measurement": "IC50", "setting": "c-kit kinase", "result": "0.0001 to 1", "unit": "µM"}
    ]},
    {"molecule": "Nc1ccc(-c2ncnc3[nH]c(-c4ccc(F)cc4)cc23)cc1", "note": "[P-0416, 4-[6-(4-fluorophenyl)-7H-pyrrolo[2,3-d]pyrimidin-4-yl]aniline]", "values": [
      {"measurement": "IC50", "setting": "c-kit mutant D816V", "result": "0.0001 to 1", "unit": "µM"},
      {"measurement": "IC50", "setting": "c-kit kinase", "result": "0.0001 to 1", "unit": "µM"}
    ]},
    {"molecule": "NS(=O)(=O)c1ccc(-c2ncnc3[nH]c(-c4ccc(F)cc4)cc23)cc1", "note": "[P-0418, 4-[6-(4-fluorophenyl)-7H-pyrrolo[2,3-d]pyrimidin-4-yl]benzenesulfonamide]", "values": [
      {"measurement": "IC50", "setting": "c-kit mutant D816V", "result": "0.0001 to 1", "unit": "µM"},
      {"measurement": "IC50", "setting": "c-kit kinase", "result": "1 to 10", "unit": "µM"}
    ]},
    {"molecule": "CCCCS(=O)(=O)Nc1ccc(-c2ncnc3[nH]c(-c4ccc(F)cc4)cc23)cc1", "note": "[P-0419, N-[4-[6-(4-fluorophenyl)-7H-pyrrolo[2,3-d]pyrimidin-4-yl]phenyl]butane-1-sulfonamide]", "values": [
      {"measurement": "IC50", "setting": "c-kit mutant D816V", "result": "0.0001 to 1", "unit": "µM"},
      {"measurement": "IC50", "setting": "c-kit kinase", "result": "10 to 200", "unit": "µM"}
    ]},
    {"molecule": "O=S(=O)(Nc1ccc(-c2ncnc3[nH]c(-c4ccc(F)cc4)cc23)cc1)C1CC1", "note": "[P-0420, N-[4-[6-(4-fluorophenyl)-7H-pyrrolo[2,3-d]pyrimidin-4-yl]phenyl]cyclopropanesulfonamide]", "values": [
      {"measurement": "IC50", "setting": "c-kit mutant D816V", "result": "0.0001 to 1", "unit": "µM"},
      {"measurement": "IC50", "setting": "c-kit kinase", "result": "10 to 200", "unit": "µM"}
    ]},
    {"molecule": "COc1ccc(CNS(=O)(=O)c2ccc(-c3ncnc4[nH]c(-c5ccc(F)cc5)cc34)cc2)cc1", "note": "[P-0423, 4-[6-(4-fluorophenyl)-7H-pyrrolo[2,3-d]pyrimidin-4-yl]-N-[(4-methoxyphenyl)methyl]benzenesulfonamide]", "values": [
      {"measurement": "IC50", "setting": "c-kit mutant D816V", "result": "10 to 200", "unit": "µM"},
      {"measurement": "IC50", "setting": "c-kit kinase", "result": "10 to 200", "unit": "µM"}
    ]},
    {"molecule": "Cc1ccc(NS(=O)(=O)c2ccc(-c3ncnc4[nH]c(-c5ccc(F)cc5)cc34)cc2)cc1", "note": "[P-0426, 4-[6-(4-fluorophenyl)-7H-pyrrolo[2,3-d]pyrimidin-4-yl]-N-(p-tolyl)benzenesulfonamide]", "values": [
      {"measurement": "IC50", "setting": "c-kit mutant D816V", "result": "1 to 10", "unit": "µM"},
      {"measurement": "IC50", "setting": "c-kit kinase", "result": "10 to 200", "unit": "µM"}
    ]},
    {"molecule": "O=S(=O)(NC1CC1)c1cccc(-c2ncnc3[nH]c(-c4ccc(F)cc4)cc23)c1", "note": "[P-0429, N-cyclopropyl-3-[6-(4-fluorophenyl)-7H-pyrrolo[2,3-d]pyrimidin-4-yl]benzenesulfonamide]", "values": [
      {"measurement": "IC50", "setting": "c-kit mutant D816V", "result": "0.0001 to 1", "unit": "µM"},
      {"measurement": "IC50", "setting": "c-kit kinase", "result": "0.0001 to 1", "unit": "µM"}
    ]},
    {"molecule": "CNS(=O)(=O)c1ccc(-c2ncnc3[nH]c(-c4ccc(F)cc4)cc23)cc1", "note": "[P-0430, 4-[6-(4-fluorophenyl)-7H-pyrrolo[2,3-d]pyrimidin-4-yl]-N-methyl-benzenesulfonamide]", "values": [
      {"measurement": "IC50", "setting": "c-kit mutant D816V", "result": "0.0001 to 1", "unit": "µM"},
      {"measurement": "IC50", "setting": "c-kit kinase", "result": "1 to 10", "unit": "µM"}
    ]},
    {"molecule": "CCS(=O)(=O)Nc1ccc(-c2ncnc3[nH]c(-c4ccc(F)cc4)cc23)cc1", "note": "[P-0431, N-[4-[6-(4-fluorophenyl)-7H-pyrrolo[2,3-d]pyrimidin-4-yl]phenyl]ethanesulfonamide]", "values": [
      {"measurement": "IC50", "setting": "c-kit mutant D816V", "result": "0.0001 to 1", "unit": "µM"},
      {"measurement": "IC50", "setting": "c-kit kinase", "result": "0.0001 to 1", "unit": "µM"}
    ]}
  ]
}
